The values that follow are results of earlier work, collected in PubChem BioAssay AID1259409 (Chemical Carcinogenesis Research Information System (CCRIS), 2018).

Each structure is given as a SMILES string.

The data set concerns rodent chemically induced tumor inhibition, incidence and multiplicity. The experiment in a line: CCRIS tumor inhibitor studies. As to conditions: Route [Inhibitor]: DERMAL, Species: MOUSE, Target Tissue: Type of Lesion: SKIN: PAPILLOMA, Promoter: 12-O-TETRADECANOYLPHORBOL-13-ACETATE, 16561-29-8.

`O=c1cc(-c2ccccc2)oc2c1ccc1ccccc12`: the “tumour outcome (control, treated, inhibition, significance)” value reads like this: (Carcinogen: 7,14-DIMETHYLBENZO[A,H]ANTHRACENE, 35335-07-0, Dose [Inhibitor]: 0, 370 NMOL IN 0.2 ML ACETONE APPLIED 5 MIN PRIOR TO CARCINOGEN (STUDY DURATION: 21 WK), Strain/Sex: SENCAR/FEMALE, Dose [Carcinogen]: 47.5 NMOL IN 0.2 ML ACETONE ONCE) 97%, 96%, 1%, not calculated; (Carcinogen: 7,14-DIMETHYLBENZO[A,H]ANTHRACENE, 35335-07-0, Dose [Inhibitor]: 0, 3700 NMOL IN 0.2 ML ACETONE APPLIED 5 MIN PRIOR TO CARCINOGEN (STUDY DURATION: 21 WK), Strain/Sex: SENCAR/FEMALE, Dose [Carcinogen]: 47.5 NMOL IN 0.2 ML ACETONE ONCE) 97%, 97%, 0%; (Carcinogen: 7-(BROMOMETHYL)BENZ[A]ANTHRACENE, 24961-39-3, Dose [Inhibitor]: 100 UG IN 0.2 ML ACETONE ONCE 5 MIN BEFORE CARCINOGEN TREATMENT (STUDY DURATION: 31 WK), Strain/Sex: CD-1/FEMALE, Dose [Carcinogen]: 3125 NMOL IN 0.2 ML ACETONE ONCE) 55%, 30%, 45%, not calculated; (Carcinogen: 7-BROMOMETHYL-12-METHYLBENZ[A]ANTHRACENE, 16238-56-5, Dose [Inhibitor]: 100 UG IN 0.2 ML ACETONE ONCE 5 MIN BEFORE CARCINOGEN TREATMENT (STUDY DURATION: 31 WK), Strain/Sex: CD-1/FEMALE, Dose [Carcinogen]: 600 NMOL IN 0.2 ML ACETONE ONCE) 96%, 72%, 25%, not calculated; (Carcinogen: 7-FORMYL-12-METHYLBENZ[A]ANTHRACENE, 13345-61-4, Dose [Inhibitor]: 100 UG IN 0.2 ML ACETONE ONCE 5 MIN BEFORE CARCINOGEN TREATMENT (STUDY DURATION: 31 WK), Strain/Sex: CD-1/FEMALE, Dose [Carcinogen]: 740 NMOL IN 0.2 ML ACETONE ONCE) 84%, 63%, 25%, not calculated; (Carcinogen: 7-HYDROXYMETHYL-12-METHYLBENZ[A]ANTHRACENE, 568-75-2, Dose [Inhibitor]: 100 UG IN 0.2 ML ACETONE ONCE 5 MIN BEFORE CARCINOGEN TREATMENT (STUDY DURATION: 31 WK), Strain/Sex: CD-1/FEMALE, Dose [Carcinogen]: 400 NMOL IN 0.2 ML ACETONE ONCE) 48%, 52%, -8%, not calculated. Moreover, the “tumour outcome (control, treated, inhibition, significance)” value reads like this: (Carcinogen: 12-BROMOMETHYL-7-METHYLBENZ[A]ANTHRACENE, 59230-81-8, Dose [Inhibitor]: 100 UG IN 0.2 ML ACETONE ONCE 5 MIN BEFORE CARCINOGEN TREATMENT (STUDY DURATION: 31 WK), Strain/Sex: CD-1/FEMALE, Dose [Carcinogen]: 600 NMOL IN 0.2 ML ACETONE ONCE) 87%, 74%, 15%, not calculated; (Carcinogen: BENZO[A]PYRENE, 50-32-8, Dose [Inhibitor]: 10 UG IN 0.2 ML ACETONE ONCE 5 MINUTES BEFORE CARCINOGEN TREATMENT (STUDY DURATION: 31 WK), Strain/Sex: CD-1/FEMALE, Dose [Carcinogen]: 400 NMOL IN 0.2 ML ACETONE ONCE) 90%, 90%, 0%, not calculated; (Carcinogen: BENZO[A]PYRENE, 50-32-8, Dose [Inhibitor]: 100 UG IN 0.2 ML ACETONE ONCE 5 MINUTES BEFORE CARCINOGEN TREATMENT (STUDY DURATION: 31 WK), Strain/Sex: CD-1/FEMALE, Dose [Carcinogen]: 400 NMOL IN 0.2 ML ACETONE ONCE) 90%, 80%, 11%, not calculated; (Carcinogen: BENZO[A]PYRENE, 50-32-8, Dose [Inhibitor]: 200 UG IN 0.2 ML ACETONE ONCE 5 MINUTES BEFORE CARCINOGEN TREATMENT (STUDY DURATION: 31 WK), Strain/Sex: CD-1/FEMALE, Dose [Carcinogen]: 400 NMOL IN 0.2 ML ACETONE ONCE) 90%, 77%, 14%, not calculated; (Carcinogen: DIBENZO[A,H]ANTHRACENE, 53-70-3, Dose [Inhibitor]: 0, 370 NMOL IN 0.2 ML ACETONE APPLIED 5 MIN PRIOR TO CARCINOGEN (STUDY DURATION: 21 WK), Strain/Sex: SENCAR/FEMALE, Dose [Carcinogen]: 200 NMOL IN 0.2 ML ACETONE ONCE) 100%, 77%, 23%, not calculated; (Carcinogen: DIBENZO[A,H]ANTHRACENE, 53-70-3, Dose [Inhibitor]: 0, 3700 NMOL IN 0.2 ML ACETONE APPLIED 5 MIN PRIOR TO CARCINOGEN (STUDY DURATION: 21 WK), Strain/Sex: SENCAR/FEMALE, Dose [Carcinogen]: 200 NMOL IN 0.2 ML ACETONE ONCE) 100%, 80%, 20%, not calculated.
